Each structure is given as a SMILES string. Several values for one entry are separate records, joined by “and”; a condition that tells them apart may be missing. Identical values can stand only once. Like-named read-outs stand apart in the source and are kept apart here.

Common to all, as to assay type: biochemical, A. thaliana
One test has as its target T1, PRORP1 C353A/C373A (Arabidopsis thaliana, UniProt Q66GI4, C353A/C373A).
T1 construct: made in house
The experiment in a line: Time-dependent inactivation by juglone, PRORP1 C353A/C373A. The procedure: Given the multiple sites of cysteine modification, we wanted to identify the one(s) that potentially play a significant role in PRORP1 inactivation. Therefore, several cysteine-to-alanine point mutants were expressed, purified, and subjected to inhibition studies. We tested both single-site (C353A and C373A) and double-site (C353A/C373A and C222A/C353A) mutations. […] The value of kinact,app for each PRORP1 at varied concentrations of juglone was determined by fitting a single exponential equation (Equation 5) to the data (Fig. 10A). Unexpectedly, the values of kinact/KI (reflecting the inhibition of E + I to form EI∗) increased for a number of the PRORP1 variants: wildtype (0.001 ± 0.00004 μM^-1 min^-1), C353A (0.005 ± 0.002 μM^−1 min^−1), C373A (0.002 ± 0.0004 μM^-1 min^−1), C222A/C353A (0.003 ± 0.0001 μM^−1 min^−1), and C353A/C373A (0.0008 ± 0.0002 μM^-1 min^−1). These modest increases could be due to a decrease in the KI value or an increase in the value of kinact. […] Although, we cannot discount the possibility, however unlikely, that juglone may employ a mode of inhibition beyond cysteine residue modification that our crystal structures fail to capture.
Figure 10 Effects of PRORP1 cysteine mutations on juglone inactivation. […]
For the analysis of juglone, PRORP1 activity was measured with varying preincubation time and juglone concentration. […]

The target in another test is T2, PRORP1 wildtype (Arabidopsis thaliana, UniProt Q66GI4).
T2 construct: made in house
T2 sequence (Q66GI4 77-572): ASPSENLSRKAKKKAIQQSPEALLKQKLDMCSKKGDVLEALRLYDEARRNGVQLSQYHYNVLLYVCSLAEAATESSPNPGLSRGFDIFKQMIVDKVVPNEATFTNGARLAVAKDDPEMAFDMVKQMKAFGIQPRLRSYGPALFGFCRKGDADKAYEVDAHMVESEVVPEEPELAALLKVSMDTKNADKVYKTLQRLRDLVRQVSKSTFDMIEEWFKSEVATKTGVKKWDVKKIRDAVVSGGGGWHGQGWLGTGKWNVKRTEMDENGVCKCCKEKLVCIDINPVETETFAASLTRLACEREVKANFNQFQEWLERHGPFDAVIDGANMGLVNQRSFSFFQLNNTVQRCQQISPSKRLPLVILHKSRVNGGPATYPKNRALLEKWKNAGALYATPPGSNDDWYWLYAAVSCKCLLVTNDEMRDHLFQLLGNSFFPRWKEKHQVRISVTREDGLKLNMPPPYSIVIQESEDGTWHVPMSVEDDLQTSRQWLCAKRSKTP
The test is described as follows: Time-dependent inactivation of PRORP1 by juglone (varying preincubation time). To be noted: for kinact/KI: wildtype PRORP1, 0.3 nM PRORP1, 250 nM pre-tRNA, 22 °C. The procedure:
A global fit of the data (Equations 5 and 6) was used to calculate kinact/KI. […] The errors shown are the standard errors obtained from fitting Equation 5 to the data in A independently. Reactions were performed with 0.3 nM PRORP1, 250 nM pre-tRNA containing 40 nM Fl-pre-tRNA, at 22 °C, in 30 mM MOPS, pH 7.8, 1 mM TCEP, 5 mM MgCl2, 500 nM (12 μg/ml) yeast tRNA, 5 mM spermidine, 6.65 μg/ml BSA, and 0.01% NP-40. Data are fit to determine kinact/KI.
For the analysis of juglone, PRORP1 activity was measured with varying preincubation time and juglone concentration. Varying concentrations of juglone were preincubated with a 35 μl of PRORP1 from 2 min to 4 h in 30 mM MOPS pH 7.8, 5 mM MgCl2, 100 mM NaCl, 1 mM TCEP, 500 nM (12 μg/ml) yeast tRNA^mix, 5 mM spermidine, 6.65 μg/ml BSA, and 0.01% NP-40. The concentration of DMSO in each reaction was held constant at 1%. Reactions were initiated by addition of 5 μl of substrate for a final working concentration of 0.3 nM PRORP1 and 250 nM pre-tRNA, a substrate concentration well below the KM value. The dependence of the initial velocity on the preincubation time was fit to a single exponential decay equation (Equation 5) to determine kinact,app at each juglone concentration. The values for kinact,app for various juglone concentrations (represented by [I]) were fit with Equation 6 to determine kinact/KI, assuming a 2-step inactivation mechanism.(5) Activity(%)=Ae^−(kinact,app)t (6) kinact,app=kinact/KI(KI[I]/KI+[I])

The next test deals with T3, PRORP1 (Arabidopsis thaliana, UniProt Q66GI4).
T3 construct: made in house
T3 sequence (Q66GI4 77-572): T2 sequence (Q66GI4 77-572)
The experiment in a line: Mode of inhibition of gambogic acid, PRORP1 activity at varying pre-tRNA and inhibitor. On the procedure: Equation 2 was fit to each data set to calculate the values of kcat,app, and KM,app, and (kcat/KM)app. […] The dotted line simulates the fit of Equation 3 with n = 1. C, kcat/KM,app values for PRORP1 activity vary little as a function of the gambogic acid concentration. Error bars indicate standard errors obtained from fitting the data.
To identify the mode of inhibition of gambogic acid, PRORP1 activity was measured with varying pre-tRNA and gambogic acid concentrations. The Michaelis–Menten equation (Equation 2) was fit to each curve individually to calculate the apparent turnover rate constant (kcat,app) and apparent substrate concentration at half maximal activity (KM,app). […] (3) kcat,app=kcat/1+([I]/KI)^n (4) KM,app=KM/1+([I]/KI)^n

T1 sequence (Q66GI4 77-572 C353A/C373A): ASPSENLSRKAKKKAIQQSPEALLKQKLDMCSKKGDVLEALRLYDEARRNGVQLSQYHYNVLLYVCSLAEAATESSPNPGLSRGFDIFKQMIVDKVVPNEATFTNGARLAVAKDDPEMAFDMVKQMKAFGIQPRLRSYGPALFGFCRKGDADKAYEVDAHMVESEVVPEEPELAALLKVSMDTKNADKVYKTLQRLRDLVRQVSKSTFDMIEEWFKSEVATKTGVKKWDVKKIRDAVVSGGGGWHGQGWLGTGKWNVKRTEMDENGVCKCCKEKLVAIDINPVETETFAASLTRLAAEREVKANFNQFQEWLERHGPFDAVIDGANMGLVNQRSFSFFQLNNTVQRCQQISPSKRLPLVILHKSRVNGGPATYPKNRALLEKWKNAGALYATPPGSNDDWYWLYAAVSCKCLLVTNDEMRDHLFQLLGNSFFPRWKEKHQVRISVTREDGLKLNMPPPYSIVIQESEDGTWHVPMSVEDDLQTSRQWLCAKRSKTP

As for `O=C1C=CC(=O)c2c(O)cccc21` [juglone, 5-hydroxy-1,4-naphthalenedione], the kinact/KI at PRORP1 C353A/C373A was 13.3 M⁻¹ s⁻¹; at PRORP1 wildtype (read-out: kinact/KI, global fit using Equations 5 and 6 (converted)), 16.7 M⁻¹ s⁻¹; on PRORP1 wildtype (read-out: kinact/KI, hyperbolic fit using Equation 6 (converted)), 16.7 M⁻¹ s⁻¹. Further, the “inhibition at time 0” value against PRORP1 C353A/C373A (double-cysteine mutation (C353A/C373A)) is recorded as “not observed”. In addition, at PRORP1 wildtype, the Ki stood at 12.5 ± 2.7 µM. For the same molecule, the “decrease in initial activity (extrapolated to 0 min preincubation)” value at PRORP1 wildtype (10 μM juglone (highest concentration)) was 50%. For the same molecule, at PRORP1 wildtype (Equation 1), the “Hill coefficient n of the fit to 0-min preincubation data” value worked out at 1. Besides, the “mode of inhibition of PRORP1” value on PRORP1 wildtype (inhibition depends on preincubation time) is listed as “time-dependent inhibitor”.
As to `CC(C)=CCC[C@]1(C)C=Cc2c(O)c3c(c(CC=C(C)C)c2O1)O[C@]12C(=C[C@@H]4C[C@H]1C(C)(C)O[C@@]2(C/C=C(/C)C(=O)O)C4=O)C3=O` [gambogic acid], the “Hill coefficient (n), fit of Equation 3” value on PRORP1 (dependence of kcat,app on gambogic acid concentration) is 4 and 3.8 ± 0.8. In addition, the Ki was determined as 1100 ± 30 nM on PRORP1 (global fit, read-out: KI, global fit analysis (Equations 2, 3, 4)) and 1080 ± 50 nM at PRORP1 (uncompetitive model, gambogic acid 0-1.6 μM, read-out: inhibition constant (KI), fit of Equation 3 to kcat,app). Also, the “mode of inhibition of PRORP1” value at PRORP1 (kcat,app decreases, (kcat/KM)app unchanged) was “uncompetitive inhibitor”.

Source of the values: article PMC9731865, “Gambogic acid and juglone inhibit RNase P through distinct mechanisms” (The Journal of Biological Chemistry, 2022).
